Reference: patent US5912233A, “Methods and peptides for the treatment of non-IgE-mediated diseases” (Dura Pharmaceuticals, Inc., priority 1995, dated 1999)
Values joined by “and” are separate entries in the source; they are usually repeats but may differ in a detail not shown here. Identical values can stand only once. Residues, ends and D or L forms follow the SMILES beside them. No end group written: not given here.

How the values were obtained:
[1] = tested on: immunoglobulin Fc receptors; conditions: U.S. Pat. No. 4,628,045; cited from earlier work
[2] = tested on: chronic idiopathic urticaria; conditions: human, in vivo
[3] = tested on: lymphoblastoid tissue culture cells; conditions: two trials; U.S. Pat. No. 4,161,522; cited from earlier work
[4] = tested on: immune complex-mediated ulcerative colitis; test: Immune complex-induced ulcerative colitis model (formalin + IgG immune complexes); format: in vivo, BKA mice; conditions: prednisolone 5.0 mg/kg i.p.
Description: A mouse model of intestinal inflammation was employed wherein the efficacy of pentigetide in reducing inflammation induced by formalin and complementfixing lgG immune complexes was measured. This model is particularly useful as a model of human ulcerative colitis and shares many clinical and histological functions of the human disease including sensitivity to glucocorticoids, sulfasalazine and 5-aminosalicylic acid (see L. P. Walsh, et al., British J. Pharm. 91:294 (1987); A. Blackham, et al., British J. Pharm. 89:694 (1986); L. D. Walsh and I. J. Zeitlin, British J. Pharm. 92:741 (1987)). The mouse model of intestinal inflammation used in these studies is induced by the exposure of the animals to chemicals which are known to trigger inflammatory processes in both animals and humans. […]
Colonic tissue water content was determined by tissue weight loss on drying of colonic tissues. […]
The response to immune complex alone was determined quantitatively by subtracting the mean value in group B from the mean value in group C. An estimate of the percentage reduction in this response produced by the drug was calculated as: [formula] […] Statistical significance was determined using the non-parametric Mann-Whitney U-test. […]

[5] = tested on: sheep erythrocyte (SRBC)-induced DTH reactions; test: Sheep erythrocyte (SRBC)-induced DTH, footpad volume; format: in vivo, Balb/C mice; conditions: indomethacin 1.0 mg/kg, day 4; positive control
[6] = tested on: carrageenan-induced inflammation; test: Carrageenan-induced footpad edema; format: in vivo, Balb/C mice; conditions: 10 mg/kg s.c. 24 hours prior to carrageenan
Description: In order to examine the ability of pentigetide to inhibit carrageenan-induced inflammation, female Balb/C mice were injected with 0.025 ml of 1.0% carrageenan solution (type lx carrageenan: Sigma No. C-1013, Lot No. 86F-0698) or saline in the right hind footpad 5 minutes after intravenous tail vein injection of 0.2 ml pentigetide (1.0 mg/kg) or saline solution. Indomethacin (10 mg/kg was used as a positive control and was administered by subcutaneous injection 24 hours prior to carrageenan injection. Footpad volumes were measured using a Buxco plethysmograph over a 6 hour period. Pentigetide produced substantial inhibition of carrageenan-induced inflammation when compared to saline control animals.

[7] = tested on: tetanus toxoid-induced DTH reactions; parameters: species or system Balb/C mice; conditions: mouse, in vivo

Asp-Ser-Glu-Pro-Arg (DSEPR; printed: Asp-Ser-Glu-Pro-Arg)
blocking of immune complex binding to immunoglobulin Fc receptors [1]: capable of blocking immune complex binding

N=C(N)NCCC[C@H](NC(=O)[C@@H]1CCCN1C(=O)[C@H](CC(=O)O)NC(=O)[C@H](CO)NC(=O)[C@@H](N)CC(=O)O)C(=O)O [pentigetide, Asp-Ser-Asp-Pro-Arg] (H-DSDPR-OH)
side effects [2]: did not experience any side effects

Asn-Ser-Asp-Pro-Arg (NSDPR; printed: Asn-Ser-Asp-Pro-Arg)
activity in blocking binding of IgE to lymphoblastoid tissue culture cells [3]: lower activity

C[C@]12C=CC(=O)C=C1CC[C@@H]1[C@@H]2[C@@H](O)C[C@@]2(C)[C@H]1CC[C@]2(O)C(=O)CO [prednisolone]
reduction of colonic edema ([4]; three days prior and daily thereafter, p<0.01): 86.2%
reduction of colonic edema (in the colitic sign score paragraph) ([4]; p<0.001): 93.8%

[-Cys-Ala-Asn-Ser-Asn-Pro-Arg]2 (CANSNPR; also: dimer)
activity in blocking binding of IgE to lymphoblastoid tissue culture cells [3]: 9% and 12%

COc1ccc2c(c1)c(CC(=O)O)c(C)n2C(=O)c1ccc(Cl)cc1 [Indomethacin, indomethacin]
inhibition (footpad swelling) [5]: 43%
Percent Inhibition ([6]; 1.0 hours after carrageenan injection): -35%
Percent Inhibition ([6]; 2.0 hours after carrageenan injection): -60%
Percent Inhibition ([6]; 4.0 hours after carrageenan injection): -39%
Percent Inhibition ([6]; 6.0 hours after carrageenan injection): -47%
inhibition (footpad swelling) [7]: 45%

Asn-Ser-Asn-Pro-Arg (NSNPR; printed: Asn-Ser-Asn-Pro-Arg)
activity in blocking binding of IgE to lymphoblastoid tissue culture cells [3]: lower activity
